This note sets out measurements from the supplement of paper PMC10307832.

What all share (test): relative viability (nuclei count vs DMSO), 5 days (fraction); higher = more cells survive
Compound in assay [1]: C1COCCN1C2=NC(=NC3=C2OC4=C3C=CC=N4)C5=CC(=CC=C5)NC(=O)C6=CN=C(C=C6)N + CC(C)C[C@H](NC(=O)[C@H](Cc1ccccc1)NC(=O)c1cnccn1)B(O)O [Bortezomib] (partner 0.002 µM)
The method, boiled down:
(§1)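 Relative viability divides the nuclei count in treated wells by that in vehicle wells. Lung cancer cell lines were seeded in 1536-well plates, dosed by pin tool the next day, and fixed and stained after 5 days in one step with final 0.05% Triton X-100, 1% formaldehyde and 1 ug/ml Hoechst. Dosing was a single drug or a fixed anchor-drug dose plus five library-drug doses (not always all listed) in √10 steps, and values are medians of duplicate plates imaged at 4×.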

Compound in the assay “SGI-1776 + Tozasertib”: CN1CCC(CNc2ccc3ncc(-c4cccc(OC(F)(F)F)c4)n3n2)CC1 [SGI-1776] + Cc1cc(Nc2cc(N3CCN(C)CC3)nc(Sc3ccc(NC(=O)C4CC4)cc3)n2)n[nH]1 [Tozasertib] (partner 0.1 µM)
The method, boiled down:
as §1

Compound in the assay “Entinostat + Vorinostat”: Nc1ccccc1NC(=O)c1ccc(CNC(=O)OCc2cccnc2)cc1 [Entinostat] + O=C(CCCCCCC(=O)Nc1ccccc1)NO [Vorinostat] (partner 1 µM)
A digest of the protocol:
as §1

Compound in assay [2]: C1COCCN1C2=NC(=NC3=C2OC4=C3C=CC=N4)C5=CC(=CC=C5)NC(=O)C6=CN=C(C=C6)N + COc1cc2c(Oc3ccc(NC(=O)C4(C(=O)Nc5ccc(F)cc5)CC4)cc3F)ccnc2cc1OCCCN1CCOCC1 [Foretinib] (partner 0.25 µM)
The method, boiled down:
as §1

NCI-H1915: the relative viability in assay [1] (first compound 0.02 µM) was found to be 1.07; in assay [1] (first compound 0.06325 µM) it was 1.08; in assay [1] (first compound 0.2 µM), 1.03; in assay [1] (first compound 0.6325 µM), 1.02; in assay [1] (first compound 2 µM), 0.423; with SGI-1776 + Tozasertib (first compound 0.08 µM) it was 0.456. The relative viability in the assay with SGI-1776 + Tozasertib (first compound 0.8 µM) was 0.418; in the assay with SGI-1776 + Tozasertib (first compound 2.53 µM) it was 0.33; with SGI-1776 + Tozasertib (first compound 8 µM), 0.198; in the assay with Entinostat + Vorinostat (first compound 0.02 µM), 0.488; with Entinostat + Vorinostat (first compound 0.06325 µM), 0.499; with Entinostat + Vorinostat (first compound 0.2 µM), 0.481. For the same cell line, the relative viability was 0.356 in the assay with Entinostat + Vorinostat (first compound 0.6325 µM); 0.152 with Entinostat + Vorinostat (first compound 2 µM); 1.11 in assay [2] (first compound 0.02 µM); 1.18 in assay [2] (first compound 0.06325 µM); 1.11 in assay [2] (first compound 0.2 µM); 1.13 in assay [2] (first compound 0.6325 µM). Also, the relative viability in assay [2] (first compound 2 µM) worked out at 0.856.

Turning to NCI-H1975, the relative viability in assay [1] (first compound 0.02 µM) is 0.352; in assay [1] (first compound 0.06325 µM) it was 0.419; in assay [1] (first compound 0.2 µM) it was 0.397; in assay [1] (first compound 0.6325 µM), 0.359; in assay [1] (first compound 2 µM) it was 0.299; with SGI-1776 + Tozasertib (first compound 0.08 µM), 0.809. Also, the relative viability in the assay with SGI-1776 + Tozasertib (first compound 0.8 µM) was determined as 0.335; in the assay with SGI-1776 + Tozasertib (first compound 2.53 µM), 0.169; with SGI-1776 + Tozasertib (first compound 8 µM), 0.175; with Entinostat + Vorinostat (first compound 0.02 µM), 0.692; with Entinostat + Vorinostat (first compound 0.06325 µM) it was 0.651; with Entinostat + Vorinostat (first compound 0.2 µM), 0.509. Further, the relative viability with Entinostat + Vorinostat (first compound 0.6325 µM) came to 0.347; in the assay with Entinostat + Vorinostat (first compound 2 µM), 0.211; in assay [2] (first compound 0.02 µM), 1.01; in assay [2] (first compound 0.06325 µM), 0.857; in assay [2] (first compound 0.2 µM) it was 0.896; in assay [2] (first compound 0.6325 µM), 0.886. Also, the relative viability in assay [2] (first compound 2 µM) was 0.498.

Consider NCI-H1993, for which the relative viability came to 1.2 in assay [1] (first compound 0.02 µM); 1.13 in assay [1] (first compound 0.06325 µM); 0.967 in assay [1] (first compound 0.2 µM); 0.891 in assay [1] (first compound 0.6325 µM); 0.893 in assay [1] (first compound 2 µM); 0.568 with SGI-1776 + Tozasertib (first compound 0.08 µM). The relative viability with SGI-1776 + Tozasertib (first compound 0.8 µM) is 0.607; in the assay with SGI-1776 + Tozasertib (first compound 2.53 µM), 0.57; with SGI-1776 + Tozasertib (first compound 8 µM), 0.571; in the assay with Entinostat + Vorinostat (first compound 0.02 µM), 0.841; with Entinostat + Vorinostat (first compound 0.06325 µM) it was 0.661; with Entinostat + Vorinostat (first compound 0.2 µM), 0.73. Further, the relative viability is 0.453 with Entinostat + Vorinostat (first compound 0.6325 µM); 0.351 in the assay with Entinostat + Vorinostat (first compound 2 µM); 0.879 in assay [2] (first compound 0.02 µM); 0.837 in assay [2] (first compound 0.06325 µM); 0.732 in assay [2] (first compound 0.2 µM); 0.723 in assay [2] (first compound 0.6325 µM). In addition, the relative viability in assay [2] (first compound 2 µM) was 0.665.

Consider NCI-H2009, for which the relative viability in assay [1] (first compound 0.02 µM) worked out at 0.977; in assay [1] (first compound 0.06325 µM), 1.11; in assay [1] (first compound 0.2 µM), 0.969; in assay [1] (first compound 0.6325 µM), 0.977; in assay [1] (first compound 2 µM), 0.727; with SGI-1776 + Tozasertib (first compound 0.08 µM), 0.646. Further, the relative viability with SGI-1776 + Tozasertib (first compound 0.8 µM) is 0.543; with SGI-1776 + Tozasertib (first compound 2.53 µM) it was 0.449; with SGI-1776 + Tozasertib (first compound 8 µM), 0.387; in the assay with Entinostat + Vorinostat (first compound 0.02 µM), 0.664; with Entinostat + Vorinostat (first compound 0.06325 µM), 0.72; with Entinostat + Vorinostat (first compound 0.2 µM), 0.762. Besides, the relative viability in the assay with Entinostat + Vorinostat (first compound 0.6325 µM) amounted to 0.581; with Entinostat + Vorinostat (first compound 2 µM), 0.416; in assay [2] (first compound 0.02 µM) it was 1.28; in assay [2] (first compound 0.06325 µM), 1.24; in assay [2] (first compound 0.2 µM), 1.19; in assay [2] (first compound 0.6325 µM), 1.11. In assay [2] (first compound 2 µM), the relative viability was determined as 0.932.

Take NCI-H2023: the relative viability in assay [1] (first compound 0.02 µM) turned out to be 0.995; in assay [1] (first compound 0.06325 µM), 1.13; in assay [1] (first compound 0.2 µM), 0.914; in assay [1] (first compound 0.6325 µM), 0.75; in assay [1] (first compound 2 µM) it was 0.48; with SGI-1776 + Tozasertib (first compound 0.08 µM), 0.325. In addition, the relative viability with SGI-1776 + Tozasertib (first compound 0.8 µM) stood at 0.224; in the assay with SGI-1776 + Tozasertib (first compound 2.53 µM), 0.165; with SGI-1776 + Tozasertib (first compound 8 µM) it was 0.148; with Entinostat + Vorinostat (first compound 0.02 µM) it was 0.541; with Entinostat + Vorinostat (first compound 0.06325 µM), 0.536; with Entinostat + Vorinostat (first compound 0.2 µM) it was 0.318. Moreover, the relative viability turned out to be 0.118 with Entinostat + Vorinostat (first compound 0.6325 µM); 0.0713 in the assay with Entinostat + Vorinostat (first compound 2 µM); 0.889 in assay [2] (first compound 0.02 µM); 1.07 in assay [2] (first compound 0.06325 µM); 0.765 in assay [2] (first compound 0.2 µM); 0.759 in assay [2] (first compound 0.6325 µM). The relative viability in assay [2] (first compound 2 µM) stood at 0.511.

Consider NCI-H2085, for which the relative viability in assay [1] (first compound 0.02 µM) worked out at 1.02; in assay [1] (first compound 0.06325 µM), 1.1; in assay [1] (first compound 0.2 µM), 1.05; in assay [1] (first compound 0.6325 µM), 0.943; in assay [1] (first compound 2 µM), 0.769; in the assay with SGI-1776 + Tozasertib (first compound 0.08 µM), 0.858. Also, the relative viability in the assay with SGI-1776 + Tozasertib (first compound 0.8 µM) amounted to 0.617; with SGI-1776 + Tozasertib (first compound 2.53 µM), 0.463; with SGI-1776 + Tozasertib (first compound 8 µM) it was 0.389; with Entinostat + Vorinostat (first compound 0.02 µM) it was 0.731; with Entinostat + Vorinostat (first compound 0.06325 µM) it was 0.763; with Entinostat + Vorinostat (first compound 0.2 µM) it was 0.788. The relative viability with Entinostat + Vorinostat (first compound 0.6325 µM) came out at 0.608; with Entinostat + Vorinostat (first compound 2 µM), 0.419; in assay [2] (first compound 0.02 µM), 0.998; in assay [2] (first compound 0.06325 µM), 0.998; in assay [2] (first compound 0.2 µM), 0.775; in assay [2] (first compound 0.6325 µM), 0.938. In assay [2] (first compound 2 µM), the relative viability turned out to be 0.604.

In the case of NCI-H2087, the relative viability in assay [1] (first compound 0.02 µM) was found to be 0.802; in assay [1] (first compound 0.06325 µM), 0.889; in assay [1] (first compound 0.2 µM), 0.854; in assay [1] (first compound 0.6325 µM), 0.862; in assay [1] (first compound 2 µM) it was 0.361; with SGI-1776 + Tozasertib (first compound 0.08 µM), 0.257. The relative viability in the assay with SGI-1776 + Tozasertib (first compound 0.8 µM) stood at 0.198; with SGI-1776 + Tozasertib (first compound 2.53 µM) it was 0.186; in the assay with SGI-1776 + Tozasertib (first compound 8 µM), 0.192; in the assay with Entinostat + Vorinostat (first compound 0.02 µM), 1.07; with Entinostat + Vorinostat (first compound 0.06325 µM) it was 0.407; in the assay with Entinostat + Vorinostat (first compound 0.2 µM), 0.697. Also, the relative viability amounted to 0.451 with Entinostat + Vorinostat (first compound 0.6325 µM); 0.157 in the assay with Entinostat + Vorinostat (first compound 2 µM); 1.03 in assay [2] (first compound 0.02 µM); 1.28 in assay [2] (first compound 0.06325 µM); 1.05 in assay [2] (first compound 0.2 µM); 0.962 in assay [2] (first compound 0.6325 µM). For the same cell line, the relative viability in assay [2] (first compound 2 µM) amounted to 0.741.
